Laboratory results published in ChEMBL document CHEMBL5465560, “Selectivity Literature for EUbOPEN Chemogenomic Library” (2024).

Key:
[1] = biological target: T1, Mitogen-activated protein kinase kinase kinase 6 (Homo sapiens) (UniProt O95382); assay: Selectivity interaction (KinomeScan (DiscoverX)) EUB0000655a MAP3K6; conditions: at 10 µM
T1 sequence (whole entry): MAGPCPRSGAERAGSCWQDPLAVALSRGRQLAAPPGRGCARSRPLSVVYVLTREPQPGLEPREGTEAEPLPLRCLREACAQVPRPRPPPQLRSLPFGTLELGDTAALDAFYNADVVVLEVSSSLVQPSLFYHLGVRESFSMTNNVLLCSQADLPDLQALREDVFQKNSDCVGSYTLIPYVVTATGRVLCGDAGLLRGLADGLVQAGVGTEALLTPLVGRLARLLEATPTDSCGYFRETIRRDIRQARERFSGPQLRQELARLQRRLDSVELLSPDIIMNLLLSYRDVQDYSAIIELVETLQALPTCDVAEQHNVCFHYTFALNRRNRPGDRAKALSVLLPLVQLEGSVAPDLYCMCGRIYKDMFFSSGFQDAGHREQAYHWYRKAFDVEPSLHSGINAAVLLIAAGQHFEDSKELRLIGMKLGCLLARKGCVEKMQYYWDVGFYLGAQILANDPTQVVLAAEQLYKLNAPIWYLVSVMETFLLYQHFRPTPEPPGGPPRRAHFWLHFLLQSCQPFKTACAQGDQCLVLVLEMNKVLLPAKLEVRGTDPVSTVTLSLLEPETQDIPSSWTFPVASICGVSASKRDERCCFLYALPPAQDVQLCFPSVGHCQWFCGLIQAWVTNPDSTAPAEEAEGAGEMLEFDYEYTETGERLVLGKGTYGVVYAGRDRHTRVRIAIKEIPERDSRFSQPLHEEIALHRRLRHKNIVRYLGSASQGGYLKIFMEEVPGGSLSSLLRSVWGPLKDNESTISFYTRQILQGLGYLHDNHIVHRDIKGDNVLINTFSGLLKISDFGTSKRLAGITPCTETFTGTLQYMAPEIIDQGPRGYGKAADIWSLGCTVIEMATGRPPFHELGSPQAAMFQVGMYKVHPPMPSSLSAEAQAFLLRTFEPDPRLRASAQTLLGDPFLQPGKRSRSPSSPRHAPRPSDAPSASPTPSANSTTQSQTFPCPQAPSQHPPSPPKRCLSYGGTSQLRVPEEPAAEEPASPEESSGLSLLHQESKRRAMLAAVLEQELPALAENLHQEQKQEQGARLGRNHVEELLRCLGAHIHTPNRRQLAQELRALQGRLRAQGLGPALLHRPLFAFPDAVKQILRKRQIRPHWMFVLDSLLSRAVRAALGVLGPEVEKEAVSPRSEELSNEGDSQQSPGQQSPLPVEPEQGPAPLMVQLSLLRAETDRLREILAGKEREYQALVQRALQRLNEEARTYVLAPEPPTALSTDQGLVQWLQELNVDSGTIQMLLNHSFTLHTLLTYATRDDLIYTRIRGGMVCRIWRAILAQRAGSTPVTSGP

[2] = biological target: T2, Mitogen-activated protein kinase 15 (Homo sapiens) (UniProt Q8TD08); assay: Selectivity interaction (KinomeScan (DiscoverX)) EUB0000655a MAPK15; conditions: at 10 µM
T2 sequence (whole entry): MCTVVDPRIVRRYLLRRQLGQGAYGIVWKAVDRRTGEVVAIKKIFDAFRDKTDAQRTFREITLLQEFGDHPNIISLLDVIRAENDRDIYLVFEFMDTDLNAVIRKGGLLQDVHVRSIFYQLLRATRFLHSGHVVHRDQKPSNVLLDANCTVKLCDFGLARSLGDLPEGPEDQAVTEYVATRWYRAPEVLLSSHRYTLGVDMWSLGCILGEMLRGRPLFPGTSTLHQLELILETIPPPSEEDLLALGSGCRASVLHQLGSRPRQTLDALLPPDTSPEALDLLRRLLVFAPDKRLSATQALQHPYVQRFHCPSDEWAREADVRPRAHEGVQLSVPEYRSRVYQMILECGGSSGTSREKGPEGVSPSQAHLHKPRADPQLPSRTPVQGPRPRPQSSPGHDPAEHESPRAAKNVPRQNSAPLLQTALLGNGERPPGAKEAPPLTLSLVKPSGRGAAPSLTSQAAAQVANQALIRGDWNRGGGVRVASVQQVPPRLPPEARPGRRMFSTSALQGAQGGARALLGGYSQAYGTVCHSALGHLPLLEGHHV

[3] = biological target: Tyrosine-protein kinase FRK (Homo sapiens) (UniProt P42685); assay: Selectivity interaction (KinomeScan (DiscoverX)) EUB0001079a FRK; conditions: at 1 µM
Tyrosine-protein kinase FRK (Homo sapiens), sequence (P42685 whole entry): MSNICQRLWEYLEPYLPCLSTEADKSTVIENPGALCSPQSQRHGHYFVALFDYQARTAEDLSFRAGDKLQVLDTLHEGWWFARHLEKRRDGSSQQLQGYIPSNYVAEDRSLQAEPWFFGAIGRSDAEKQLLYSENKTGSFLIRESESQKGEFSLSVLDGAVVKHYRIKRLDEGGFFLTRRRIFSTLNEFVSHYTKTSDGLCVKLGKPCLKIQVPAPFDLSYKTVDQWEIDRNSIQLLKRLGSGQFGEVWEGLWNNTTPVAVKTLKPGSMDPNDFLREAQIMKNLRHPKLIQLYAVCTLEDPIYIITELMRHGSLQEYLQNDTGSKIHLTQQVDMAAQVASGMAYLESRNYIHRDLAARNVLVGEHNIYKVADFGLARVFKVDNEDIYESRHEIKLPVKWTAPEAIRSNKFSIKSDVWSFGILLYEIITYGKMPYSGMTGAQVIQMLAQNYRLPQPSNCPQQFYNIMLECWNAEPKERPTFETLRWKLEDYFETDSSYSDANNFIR

[4] = biological target: Mitogen-activated protein kinase 8 (Homo sapiens, UniProt P45983); assay: Selectivity interaction (Kinase panel (KiNativ target engagement assay in Jurkat cells)) EUB0001635a MAPK8; format: cell-based; conditions: at 1 µM
Mitogen-activated protein kinase 8, sequence (P45983 whole entry): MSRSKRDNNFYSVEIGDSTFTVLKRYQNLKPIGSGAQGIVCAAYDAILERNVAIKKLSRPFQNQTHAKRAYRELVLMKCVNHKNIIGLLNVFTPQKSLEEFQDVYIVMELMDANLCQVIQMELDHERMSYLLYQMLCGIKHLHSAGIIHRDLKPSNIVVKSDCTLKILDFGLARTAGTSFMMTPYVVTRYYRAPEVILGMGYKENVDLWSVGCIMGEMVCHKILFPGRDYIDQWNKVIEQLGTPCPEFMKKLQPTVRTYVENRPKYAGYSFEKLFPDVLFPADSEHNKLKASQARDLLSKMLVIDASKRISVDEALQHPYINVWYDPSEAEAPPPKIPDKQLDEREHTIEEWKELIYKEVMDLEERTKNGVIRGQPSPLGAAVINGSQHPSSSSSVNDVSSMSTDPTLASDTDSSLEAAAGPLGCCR

[5] = biological target: Phosphatidylinositol 4-kinase beta (Homo sapiens, UniProt Q9UBF8); assay: Selectivity interaction (Kinase panel (KiNativ target engagement assay in Jurkat cells)) EUB0001635a PI4KB; format: cell-based; conditions: Selectivity number of off-targets 0.0, Selectivity number of targets 233.0, Source Knowledge https://www.sciencedirect.com/science/article/pii/S2451945619300674?via%3Dihub, at 1 µM
Phosphatidylinositol 4-kinase beta, sequence (Q9UBF8 2-816 limits assumed): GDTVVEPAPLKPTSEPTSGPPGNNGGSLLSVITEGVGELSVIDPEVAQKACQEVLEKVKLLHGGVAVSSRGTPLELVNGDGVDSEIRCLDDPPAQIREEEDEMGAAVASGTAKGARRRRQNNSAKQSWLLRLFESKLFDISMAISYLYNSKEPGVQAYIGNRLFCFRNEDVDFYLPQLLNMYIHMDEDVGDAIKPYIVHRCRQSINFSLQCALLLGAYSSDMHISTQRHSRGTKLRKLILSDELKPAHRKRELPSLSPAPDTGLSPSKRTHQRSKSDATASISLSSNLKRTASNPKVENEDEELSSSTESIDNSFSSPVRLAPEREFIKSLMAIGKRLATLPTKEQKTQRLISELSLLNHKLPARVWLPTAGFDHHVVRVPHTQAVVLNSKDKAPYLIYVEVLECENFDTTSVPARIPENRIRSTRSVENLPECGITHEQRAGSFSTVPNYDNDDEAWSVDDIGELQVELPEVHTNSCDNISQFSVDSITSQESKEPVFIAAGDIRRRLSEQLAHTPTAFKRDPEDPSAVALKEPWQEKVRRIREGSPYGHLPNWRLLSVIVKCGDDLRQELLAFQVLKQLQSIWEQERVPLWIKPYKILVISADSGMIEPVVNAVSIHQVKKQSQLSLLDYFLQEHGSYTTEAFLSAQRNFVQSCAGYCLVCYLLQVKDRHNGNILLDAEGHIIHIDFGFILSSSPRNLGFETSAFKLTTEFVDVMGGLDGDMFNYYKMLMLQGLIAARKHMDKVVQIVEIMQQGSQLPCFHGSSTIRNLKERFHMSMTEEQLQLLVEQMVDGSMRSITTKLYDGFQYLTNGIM

[6] = biological target: T3, Mitogen-activated protein kinase kinase kinase 3 (Homo sapiens) (UniProt Q99759); assay: Selectivity interaction (KinomeScan (DiscoverX)) EUB0001049a MAP3K3; conditions: at 1 µM
T3 sequence (whole entry): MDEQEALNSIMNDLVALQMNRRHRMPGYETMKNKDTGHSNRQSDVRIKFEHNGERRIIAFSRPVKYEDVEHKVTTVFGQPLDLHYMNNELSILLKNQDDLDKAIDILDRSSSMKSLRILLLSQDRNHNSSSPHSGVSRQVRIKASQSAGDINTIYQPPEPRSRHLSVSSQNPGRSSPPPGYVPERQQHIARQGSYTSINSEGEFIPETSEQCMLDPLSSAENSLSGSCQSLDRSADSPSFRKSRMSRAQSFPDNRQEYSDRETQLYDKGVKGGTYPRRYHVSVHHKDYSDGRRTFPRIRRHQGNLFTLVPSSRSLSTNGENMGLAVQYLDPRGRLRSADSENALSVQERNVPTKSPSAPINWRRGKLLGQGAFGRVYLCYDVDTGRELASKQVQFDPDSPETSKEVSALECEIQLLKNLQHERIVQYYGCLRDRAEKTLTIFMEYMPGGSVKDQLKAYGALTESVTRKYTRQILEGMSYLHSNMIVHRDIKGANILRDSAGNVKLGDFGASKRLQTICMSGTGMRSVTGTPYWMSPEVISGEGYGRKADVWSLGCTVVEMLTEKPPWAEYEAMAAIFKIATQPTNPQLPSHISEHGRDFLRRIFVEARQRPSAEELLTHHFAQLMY

[7] = biological target: Interleukin-1 receptor-associated kinase 1 (Homo sapiens) (UniProt P51617); assay: Selectivity interaction (KinomeScan (DiscoverX)) EUB0000666a IRAK1; conditions: at 10 µM
Interleukin-1 receptor-associated kinase 1 (Homo sapiens), sequence (P51617 whole entry, looked up): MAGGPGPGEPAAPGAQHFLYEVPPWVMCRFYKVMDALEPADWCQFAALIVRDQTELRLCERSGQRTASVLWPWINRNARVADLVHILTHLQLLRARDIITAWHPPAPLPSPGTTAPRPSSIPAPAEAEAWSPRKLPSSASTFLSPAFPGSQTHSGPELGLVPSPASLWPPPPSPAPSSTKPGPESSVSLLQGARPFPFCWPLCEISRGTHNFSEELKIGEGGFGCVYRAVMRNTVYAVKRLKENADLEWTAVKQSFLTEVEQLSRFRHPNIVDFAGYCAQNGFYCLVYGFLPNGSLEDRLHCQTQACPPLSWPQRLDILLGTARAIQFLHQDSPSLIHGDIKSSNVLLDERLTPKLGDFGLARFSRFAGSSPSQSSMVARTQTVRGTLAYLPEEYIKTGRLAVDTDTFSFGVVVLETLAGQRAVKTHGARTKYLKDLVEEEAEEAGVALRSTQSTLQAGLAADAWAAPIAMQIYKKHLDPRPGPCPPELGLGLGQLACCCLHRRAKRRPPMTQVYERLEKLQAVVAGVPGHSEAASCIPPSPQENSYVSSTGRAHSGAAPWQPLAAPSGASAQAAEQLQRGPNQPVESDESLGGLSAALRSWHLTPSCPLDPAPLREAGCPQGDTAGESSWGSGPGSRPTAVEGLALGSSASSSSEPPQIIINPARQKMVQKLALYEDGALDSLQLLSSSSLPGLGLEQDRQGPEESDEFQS

`CN(C)CCOc1ccc(-c2nc(-c3ccncc3)c(-c3ccc4c(c3)CC/C4=N\O)[nH]2)cc1` was tested, and the % of control [1] was 100% and the % of control [2] was 100%.
In the case of `Nc1cnc(N2CCc3cc(S(=O)(=O)Nc4c(F)cc(Cl)cc4F)cc(N4CCCC4=O)c32)nc1` [TP-020n], the % of control [3] was 62%.
`C=CC(=O)Nc1ccc(C(=O)Nc2[nH]nc3c2CN(C(=O)N[C@H](CN(C)C)c2ccccc2)C3(C)C)cc1` showed a % of engagement [4] of -7.2% and a % of engagement [5] of -11.3%.
Work on `COc1cc(Nc2nc(C)cc(-c3cnn4nc(OC)ccc34)n2)cc(C(F)(F)F)c1` yielded a % of control [6] of 72%.
In the case of `O=C(NOC[C@H](O)CO)c1ccc(F)c(F)c1Nc1ccc(I)cc1F`, the % of control [7] was 100%.
